One test addresses T1, human SCD1 (Homo sapiens, UniProt O00767).
T1 construct: made in house; host or cells: High Five insect cells (baculovirus, pFastBac1/hSCD1); membrane fraction
T1 sequence (O00767 1-359): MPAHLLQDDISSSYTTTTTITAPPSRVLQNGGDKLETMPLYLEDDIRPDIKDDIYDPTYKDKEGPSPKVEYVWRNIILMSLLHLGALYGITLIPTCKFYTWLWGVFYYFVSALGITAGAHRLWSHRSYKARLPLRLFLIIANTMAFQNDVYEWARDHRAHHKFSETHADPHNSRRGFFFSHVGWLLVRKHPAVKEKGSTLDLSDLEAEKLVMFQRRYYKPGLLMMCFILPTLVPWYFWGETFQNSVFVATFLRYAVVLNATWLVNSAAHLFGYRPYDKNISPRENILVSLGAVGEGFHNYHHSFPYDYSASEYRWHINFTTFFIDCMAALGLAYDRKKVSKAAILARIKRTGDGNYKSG
The experiment in a line: Measurement of human SCD1 binding activity (inhibition of binding of radiolabeled compound Z). Conditions: 1 μM compound; human SCD1-expressing membrane fraction; compound Z radioligand; read-out: Rate of inhibition of SCD1 binding (%) at compound concentration of 1 μM. The procedure: Measurement of Human SCD1 Binding Activity Using (5-(6-(1′H-spiro[1-benzofuran-3,3′-pyrrolidin]-1′-yl)pyridazin-3-yl)-1,2,4-oxadiazol-3-yl) [^3H2]methanol
The SCD1 binding activity of the compound of the present invention was measured as the activity of inhibiting the binding of (5-(6-(1′H-spiro[1-benzofuran-3,3′-pyrrolidin]-1′-yl)pyridazin-3-yl)-1,2,4-oxadiazol-3-yl)[^3H2]methanol (radiolabeled form of the compound disclosed as a SCD inhibitor in Example 157 of International Publication No. WO2008/096746; in the present specification, also referred to as compound Z) to SCD1.
Specifically, first, Human liver cDNA library (Takara Bio Inc.) was cloned as a template by PCR using KOD-Plus-(Toyobo Co., Ltd.) DNA polymerase. The primers used were 5′-[…]-3′ and 5′-[…]-3′. The amplification fragment was temporarily transferred to a pCR Blunt II-TOPO vector using Zero Blunt PCR Cloning Kit (Life Technologies, Inc.) to obtain pCR Blunt II-TOPO/hSCD1. A fragment obtained by the cleavage of this pCR Blunt II-TOPO/hSCD1 with BamHI and NotI was transferred to pFastBac1 (Life Technologies, Inc.) to construct a recombinant plasmid pFastBac1/hSCD1 for hSCD1 insect cell expression systems.
Baculovirus was prepared using the pFastBac1/hSCD1 plasmid according to the protocol of Bac-to-Bac Baculovirus Expression System (Life Technologies, Inc.).
The insect cells for use in expression were High Five cells (Life Technologies, Inc.) subcultured in a PSFM-J1 medium (Wako Pure Chemical Industries, Ltd.) containing 5% FBS, 10 U/L heparin (Sigma-Aldrich Corp.) and 50 μg/mL gentamicin.
The High Five cells were inoculated at 0.8×10^6 cells/mL and cultured until the following day. When the cell density reached 2.0×10^6 cells/mL, Ammonium Iron(III) Sulfate 12-Water (Wako Pure Chemical Industries, Ltd.) was added thereto at a final concentration of 10 μM. The cells were further infected with the baculovirus and cultured for 3 days.
After the completion of the culture, the culture solution was centrifuged (4° C., 4,000 rpm, […]) and frozen at −80° C. to obtain hSCD1-expressing insect cells. Next, the frozen hSCD1-expressing insect cells were suspended in buffer A (50 mM Tris-HCl (pH 7.5) containing 250 mM sucrose and cOmplete Protease Inhibitor Cocktail Tablets (F. Hoffmann-La Roche, Ltd.)), and the cells were disrupted (4° C., 20,000 rpm, 20 sec×2) using a POLYTORON homogenizer (Central Scientific Commerce, Inc.).
This cell lysate was centrifuged (4° C., 850×g, […]), and the supernatant was further ultracentrifuged (4° C., 186,000×g, 60 min). The supernatant was discarded, and buffer A was added to the precipitate. The resultant was suspended using POLYTRON (4° C., 10,000 rpm, 10 sec×2) and passed through a 40-μm cell strainer to prepare a human SCD1-expressing membrane fraction (hereinafter, also simply referred to as human SCD1). The protein concentration was measured using BCA Protein Assay Kit (Thermo Fisher Scientific, Inc.) with BSA used as standards.
The obtained primary dilution was diluted 250-fold by the addition of an assay buffer (10 mM Tris-HCl, pH 7.5, 100 mM KCl, 10 mM NaF, 3 mM MgCl2, 0.005% Tween 20, 1 mM GSH) to obtain a secondary dilution. The human SCD1 diluted using an assay buffer was dispensed at 100 μL/well (containing 0.2 μg of the protein) to a polypropylene 96-well plate, and then, the secondary dilution of the compound was added thereto at 50 μL/well. Further, a solution of 12 nM compound Z diluted with an assay buffer was added thereto at 50 μL/well, and the plate was left standing at room temperature for 2 hours. Then, the contents in each well were transferred to each well of UniFilter-96 GF/C PEI coated plate (PerkinElmer, Inc.) wetted with a washing buffer, followed by washing five times with a washing buffer (10 mM Tris-HCl, pH 7.5). After drying of the filter plate, Microscint-O (PerkinElmer, Inc.) was added thereto at 25 μL/well, and the obtained radioactivity was measured using TopCount (PerkinElmer, Inc.). […]

Test [1] deals with human large intestine cancer cell line HCT116. Briefly: Antitumor effect on human large intestine cancer cell line HCT116 cancer-bearing mice. In kind it is in vivo, mouse. Conditions: 10 mg/kg, 2 doses per day, orally for 14 days; HCT116 cancer-bearing BALB/c nude mice; tumor growth vs control group. The procedure:
The compound of the present invention was evaluated for its antitumor effect on human large intestine cancer cell line HCT116 cancer-bearing mice by the following method.
The human large intestine cancer cell line HCT116 (purchased from ATCC (American Type Culture Collection)) was transplanted to each 6-week-old BALB/c female nude mouse (BALB/cA Jcl nu/nu: CLEA Japan Inc.) by the subcutaneous injection of 1.0×10^6 cells. After the transplantation, successfully engrafted tumor was observed, and the tumor size was measured 10 to 14 days after the transplantation. The tumor volume was calculated according to the following expression:
Tumor volume=Major axis×Minor axis×Minor axis×(½)
Individuals in which the volume of the engrafted tumor reached approximately 150 mm^3 were selected and used in the experiment as groups each involving 5 to 8 individuals. Each test compound was suspended in a 0.5% methylcellulose solution and orally administered to each individual for 14 days using the dose and the number of doses shown in the table below. Finally, in order to measure drug effects, the tumor volume was calculated from the tumor sizes at the day before the start of the administration and at the final day of the administration, and tumor growth in the test compound administration group compared with a control administration group given only a 0.5% methylcellulose solution was calculated as T/C according to the following expression:
T/C (%)=(Tumor volume after the completion of the administration of the test compound administration group−Tumor volume at the day before the start of the administration of the test compound administration group)/(Tumor volume after the completion of the administration of the control administration group−Tumor volume at the day before the start of the administration of the control administration group)×100

For the compound `N#CC1(c2ccc(C(F)(F)F)cc2)CCN(c2ccc(-c3nc(CO)no3)nn2)CC1` [Example 38, 1-(6-(3-(Hydroxymethyl)-1,2,4-oxadiazol-5-yl)pyridazin-3-yl)-4-(4-(trifluoromethyl)phenyl)piperidine-4-carbonitrile], the inhibition at 1 µM on human SCD1 came out at 95%. In addition, the “T/C (%)” value in test [1] is on record as 85.8%.

These data come from US20170015654A1, “PYRIDAZINE COMPOUND” (TAKEDA PHARMACEUTICAL COMPANY LIMITED, priority 2014, published 2017).
